# Data: ChEMBL document CHEMBL5291721, “A preclinical secondary pharmacology resource illuminates target-adverse drug reaction associations of marketed drugs” (Nat Commun, 2023)
# Tests used:
# Thromboxane A2 receptor [1] = biological target: T1, Thromboxane A2 receptor (Homo sapiens, UniProt P21731); assay type: functional, cell-based
# T1 sequence (P21731 whole entry): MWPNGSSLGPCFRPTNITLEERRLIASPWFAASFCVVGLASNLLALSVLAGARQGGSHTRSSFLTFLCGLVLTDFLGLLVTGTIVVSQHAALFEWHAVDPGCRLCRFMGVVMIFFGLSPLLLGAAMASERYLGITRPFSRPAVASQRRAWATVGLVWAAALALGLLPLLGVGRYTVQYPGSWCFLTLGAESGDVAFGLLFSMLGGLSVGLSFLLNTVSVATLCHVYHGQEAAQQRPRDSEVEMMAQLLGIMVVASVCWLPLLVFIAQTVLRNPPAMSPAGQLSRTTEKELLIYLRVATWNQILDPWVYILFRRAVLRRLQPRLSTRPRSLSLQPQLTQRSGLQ
# [2] = biological target: T2, Muscarinic acetylcholine receptor M2 (Homo sapiens, UniProt P08172)
# T2 sequence (P08172 whole entry): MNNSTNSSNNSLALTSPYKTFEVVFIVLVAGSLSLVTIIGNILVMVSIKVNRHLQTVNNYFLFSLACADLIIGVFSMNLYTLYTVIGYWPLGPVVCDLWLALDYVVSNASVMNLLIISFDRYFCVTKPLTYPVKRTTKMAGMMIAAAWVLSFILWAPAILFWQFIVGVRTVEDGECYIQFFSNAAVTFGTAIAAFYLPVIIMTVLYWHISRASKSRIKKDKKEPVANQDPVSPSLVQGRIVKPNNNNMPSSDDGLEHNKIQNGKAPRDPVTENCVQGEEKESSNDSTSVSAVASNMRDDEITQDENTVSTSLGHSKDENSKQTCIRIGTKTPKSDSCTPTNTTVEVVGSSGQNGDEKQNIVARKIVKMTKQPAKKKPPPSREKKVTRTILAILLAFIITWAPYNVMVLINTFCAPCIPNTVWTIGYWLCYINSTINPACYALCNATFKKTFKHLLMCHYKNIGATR
# Thromboxane A2 receptor [3] = biological target: T1, Thromboxane A2 receptor; assay type: functional, cell-based; remark: listed apart in the source
# [4] = biological target: T3, 5-hydroxytryptamine receptor 1A (Homo sapiens, UniProt P08908)
# T3 sequence (P08908 whole entry): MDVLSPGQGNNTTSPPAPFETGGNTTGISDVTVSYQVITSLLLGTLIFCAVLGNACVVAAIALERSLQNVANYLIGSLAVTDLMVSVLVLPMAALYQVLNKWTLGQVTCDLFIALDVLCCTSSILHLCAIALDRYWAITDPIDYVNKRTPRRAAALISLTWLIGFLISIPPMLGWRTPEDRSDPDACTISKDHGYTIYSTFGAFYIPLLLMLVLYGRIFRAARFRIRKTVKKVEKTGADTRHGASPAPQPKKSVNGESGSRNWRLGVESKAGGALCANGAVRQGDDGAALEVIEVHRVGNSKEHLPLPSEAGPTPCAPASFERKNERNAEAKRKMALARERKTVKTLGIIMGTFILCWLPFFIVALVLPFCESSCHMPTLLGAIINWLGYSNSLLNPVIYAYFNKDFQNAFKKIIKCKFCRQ
# [5] = biological target: Vascular endothelial growth factor receptor 2 (Homo sapiens, UniProt P35968); assay type: functional
# Chain of Vascular endothelial growth factor receptor 2 (P35968 whole entry): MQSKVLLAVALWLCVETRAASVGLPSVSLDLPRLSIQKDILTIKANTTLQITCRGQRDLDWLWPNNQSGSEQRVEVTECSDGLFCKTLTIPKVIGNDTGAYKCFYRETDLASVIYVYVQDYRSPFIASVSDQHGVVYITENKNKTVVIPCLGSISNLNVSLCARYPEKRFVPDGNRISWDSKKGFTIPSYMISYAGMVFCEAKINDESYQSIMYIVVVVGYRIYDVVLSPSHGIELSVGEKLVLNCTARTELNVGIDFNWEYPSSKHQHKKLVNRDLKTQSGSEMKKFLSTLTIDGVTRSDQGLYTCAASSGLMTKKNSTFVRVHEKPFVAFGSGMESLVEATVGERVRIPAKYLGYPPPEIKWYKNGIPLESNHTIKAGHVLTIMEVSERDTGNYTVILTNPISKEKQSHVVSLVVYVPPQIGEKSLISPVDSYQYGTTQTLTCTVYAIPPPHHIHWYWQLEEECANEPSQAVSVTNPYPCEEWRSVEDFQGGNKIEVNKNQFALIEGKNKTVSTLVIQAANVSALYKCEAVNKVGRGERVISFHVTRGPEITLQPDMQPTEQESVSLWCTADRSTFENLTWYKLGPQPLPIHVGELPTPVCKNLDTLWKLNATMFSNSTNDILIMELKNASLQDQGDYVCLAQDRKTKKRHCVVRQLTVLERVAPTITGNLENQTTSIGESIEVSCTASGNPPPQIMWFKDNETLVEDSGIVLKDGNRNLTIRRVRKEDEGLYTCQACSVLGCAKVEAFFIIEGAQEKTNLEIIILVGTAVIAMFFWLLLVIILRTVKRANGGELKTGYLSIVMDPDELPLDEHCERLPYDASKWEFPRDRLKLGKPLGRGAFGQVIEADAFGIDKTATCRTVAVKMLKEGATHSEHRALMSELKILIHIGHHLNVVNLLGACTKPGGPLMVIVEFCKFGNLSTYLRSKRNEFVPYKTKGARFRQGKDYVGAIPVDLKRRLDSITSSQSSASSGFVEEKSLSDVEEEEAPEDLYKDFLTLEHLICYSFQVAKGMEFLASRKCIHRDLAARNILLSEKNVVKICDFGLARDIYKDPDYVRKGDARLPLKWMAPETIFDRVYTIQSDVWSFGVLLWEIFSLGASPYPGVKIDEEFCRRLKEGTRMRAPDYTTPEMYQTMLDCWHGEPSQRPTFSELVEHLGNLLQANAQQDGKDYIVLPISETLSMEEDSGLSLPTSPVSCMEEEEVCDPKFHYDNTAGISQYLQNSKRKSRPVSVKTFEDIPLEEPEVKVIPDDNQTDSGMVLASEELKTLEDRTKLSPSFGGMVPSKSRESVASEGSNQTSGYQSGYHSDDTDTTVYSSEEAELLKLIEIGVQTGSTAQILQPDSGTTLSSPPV
# Histamine H1 receptor = Histamine H1 receptor (Homo sapiens, UniProt P35367); assay type: functional, cell-based
# Chain of Histamine H1 receptor (P35367 whole entry): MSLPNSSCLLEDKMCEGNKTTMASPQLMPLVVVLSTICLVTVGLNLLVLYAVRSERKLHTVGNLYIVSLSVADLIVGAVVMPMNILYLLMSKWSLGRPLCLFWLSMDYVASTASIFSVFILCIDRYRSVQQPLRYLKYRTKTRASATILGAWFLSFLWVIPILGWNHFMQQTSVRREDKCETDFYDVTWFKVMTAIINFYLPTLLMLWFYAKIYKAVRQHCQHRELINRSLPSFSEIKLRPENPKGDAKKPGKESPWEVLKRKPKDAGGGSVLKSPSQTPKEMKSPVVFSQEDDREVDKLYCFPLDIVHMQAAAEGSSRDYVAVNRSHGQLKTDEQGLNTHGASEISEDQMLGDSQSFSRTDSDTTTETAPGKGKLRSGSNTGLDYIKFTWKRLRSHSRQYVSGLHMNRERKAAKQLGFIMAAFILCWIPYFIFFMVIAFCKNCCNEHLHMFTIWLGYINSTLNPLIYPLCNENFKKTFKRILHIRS
# [6] = biological target: T4, Alpha-2A adrenergic receptor (Homo sapiens, UniProt P08913)
# T4 sequence (P08913 whole entry): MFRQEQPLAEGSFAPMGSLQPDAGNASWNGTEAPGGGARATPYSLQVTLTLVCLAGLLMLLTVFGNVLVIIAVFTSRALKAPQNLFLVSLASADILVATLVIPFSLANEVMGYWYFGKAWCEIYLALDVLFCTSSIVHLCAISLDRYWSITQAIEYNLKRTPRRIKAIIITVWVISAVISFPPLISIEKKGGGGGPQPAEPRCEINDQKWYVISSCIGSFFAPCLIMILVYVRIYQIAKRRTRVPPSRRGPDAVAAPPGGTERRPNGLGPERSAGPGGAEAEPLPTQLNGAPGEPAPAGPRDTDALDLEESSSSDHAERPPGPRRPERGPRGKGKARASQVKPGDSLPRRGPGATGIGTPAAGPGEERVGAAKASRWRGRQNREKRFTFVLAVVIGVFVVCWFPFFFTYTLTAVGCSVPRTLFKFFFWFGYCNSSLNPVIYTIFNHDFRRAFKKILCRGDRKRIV
# [7] = biological target: Gamma-aminobutyric acid receptor subunit alpha-1/alpha-2/beta-2/gamma-2 (Homo sapiens, UniProt P14867+P18507+P47869+P47870); assay type: functional, cell-based
# Chain of Gamma-aminobutyric acid receptor subunit alpha-1/alpha-2/beta-2/gamma-2 (P14867 whole entry): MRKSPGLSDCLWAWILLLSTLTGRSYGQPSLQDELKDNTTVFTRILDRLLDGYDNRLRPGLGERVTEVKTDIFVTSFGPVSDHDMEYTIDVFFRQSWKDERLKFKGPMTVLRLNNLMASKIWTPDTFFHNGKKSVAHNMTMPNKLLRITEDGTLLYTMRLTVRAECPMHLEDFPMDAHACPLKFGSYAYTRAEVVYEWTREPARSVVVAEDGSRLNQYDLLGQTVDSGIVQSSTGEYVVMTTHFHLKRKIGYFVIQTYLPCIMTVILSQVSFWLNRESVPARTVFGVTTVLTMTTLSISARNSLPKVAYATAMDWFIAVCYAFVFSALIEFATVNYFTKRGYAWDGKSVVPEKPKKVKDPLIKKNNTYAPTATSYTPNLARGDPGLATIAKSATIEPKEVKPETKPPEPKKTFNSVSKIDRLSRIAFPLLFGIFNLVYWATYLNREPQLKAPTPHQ
# Chain of Gamma-aminobutyric acid receptor subunit alpha-1/alpha-2/beta-2/gamma-2 (P47870 whole entry): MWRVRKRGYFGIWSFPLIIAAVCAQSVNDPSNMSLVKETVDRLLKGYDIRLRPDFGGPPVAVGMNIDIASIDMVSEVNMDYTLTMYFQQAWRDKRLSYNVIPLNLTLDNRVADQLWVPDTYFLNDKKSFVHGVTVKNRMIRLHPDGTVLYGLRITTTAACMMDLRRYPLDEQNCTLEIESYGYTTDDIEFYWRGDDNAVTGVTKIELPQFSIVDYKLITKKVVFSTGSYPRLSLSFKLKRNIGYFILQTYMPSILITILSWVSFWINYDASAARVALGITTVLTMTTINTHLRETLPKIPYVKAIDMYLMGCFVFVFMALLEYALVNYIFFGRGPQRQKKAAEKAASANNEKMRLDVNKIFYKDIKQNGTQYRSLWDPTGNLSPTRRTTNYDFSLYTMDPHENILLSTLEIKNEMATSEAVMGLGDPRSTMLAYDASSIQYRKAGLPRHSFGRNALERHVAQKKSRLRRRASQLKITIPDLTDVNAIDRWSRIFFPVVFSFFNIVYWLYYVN
# Chain of Gamma-aminobutyric acid receptor subunit alpha-1/alpha-2/beta-2/gamma-2 (P18507 whole entry): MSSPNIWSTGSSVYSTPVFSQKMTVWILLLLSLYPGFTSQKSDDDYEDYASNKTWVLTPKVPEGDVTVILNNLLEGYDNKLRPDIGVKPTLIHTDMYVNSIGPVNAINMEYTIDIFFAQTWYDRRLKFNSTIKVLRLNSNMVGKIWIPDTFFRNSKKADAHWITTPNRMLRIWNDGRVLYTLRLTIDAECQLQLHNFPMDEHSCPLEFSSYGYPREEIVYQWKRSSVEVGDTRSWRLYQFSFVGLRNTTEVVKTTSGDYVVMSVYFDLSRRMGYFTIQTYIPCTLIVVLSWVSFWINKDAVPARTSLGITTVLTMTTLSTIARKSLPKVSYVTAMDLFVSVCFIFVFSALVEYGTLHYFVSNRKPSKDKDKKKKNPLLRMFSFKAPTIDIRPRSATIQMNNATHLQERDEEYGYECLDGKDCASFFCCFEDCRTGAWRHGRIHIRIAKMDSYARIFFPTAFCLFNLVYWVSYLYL
# Chain of Gamma-aminobutyric acid receptor subunit alpha-1/alpha-2/beta-2/gamma-2 (P47869 whole entry): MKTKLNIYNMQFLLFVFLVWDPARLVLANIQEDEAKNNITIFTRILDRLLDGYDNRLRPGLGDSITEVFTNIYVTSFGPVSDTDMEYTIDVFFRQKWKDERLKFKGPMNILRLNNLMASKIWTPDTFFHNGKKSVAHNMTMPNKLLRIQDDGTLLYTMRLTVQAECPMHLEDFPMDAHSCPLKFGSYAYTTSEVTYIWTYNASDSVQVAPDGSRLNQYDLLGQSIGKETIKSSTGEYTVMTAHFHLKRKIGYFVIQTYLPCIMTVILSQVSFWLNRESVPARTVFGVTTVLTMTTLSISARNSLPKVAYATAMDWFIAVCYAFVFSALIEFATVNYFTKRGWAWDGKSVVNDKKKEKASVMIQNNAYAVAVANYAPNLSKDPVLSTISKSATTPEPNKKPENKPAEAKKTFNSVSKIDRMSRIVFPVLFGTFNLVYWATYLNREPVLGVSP
# [8] = biological target: T5, Gastric inhibitory polypeptide receptor (Homo sapiens, UniProt P48546)
# T5 sequence (P48546 whole entry): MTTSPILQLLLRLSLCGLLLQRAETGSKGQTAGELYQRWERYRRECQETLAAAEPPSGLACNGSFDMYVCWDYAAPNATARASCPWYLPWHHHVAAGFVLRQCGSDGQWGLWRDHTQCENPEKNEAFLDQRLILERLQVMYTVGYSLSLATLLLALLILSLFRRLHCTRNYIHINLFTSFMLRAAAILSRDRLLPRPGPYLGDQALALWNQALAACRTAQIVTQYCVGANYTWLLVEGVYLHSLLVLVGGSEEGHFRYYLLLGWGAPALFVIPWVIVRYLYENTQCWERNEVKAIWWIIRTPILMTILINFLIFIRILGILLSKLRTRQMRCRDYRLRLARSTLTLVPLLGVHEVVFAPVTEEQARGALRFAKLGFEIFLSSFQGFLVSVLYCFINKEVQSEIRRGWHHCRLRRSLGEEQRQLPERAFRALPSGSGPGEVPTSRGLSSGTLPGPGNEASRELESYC
# Further: assay procedure not described here.
compound,measurement,setting,value
"O=C(O)CCCCC1CCSS1 (stereo not drawn) [LIPOIC ACID, ALPHA]",AC50,Thromboxane A2 receptor [1],> 30 µM
same,AC50,[2],> 30 µM
same,AC50,Thromboxane A2 receptor [3],> 30 µM
same,AC50,[4],> 30 µM
same,AC50,[5],> 30 µM
OCc1cc(C(O)CNCCCCCCOCCCCc2ccccc2)ccc1O (stereo not drawn) [SALMETEROL],AC50,Histamine H1 receptor,> 30 µM
Nc1c2ccccc2nc2ccccc12 [AMINACRINE],AC50,Thromboxane A2 receptor [1],> 30 µM
same,AC50,[2],4.27 µM
same,AC50,Thromboxane A2 receptor [3],> 30 µM
same,AC50,[4],> 30 µM
same,AC50,[5],> 30 µM
Cc1ncc2n1-c1ccc(Cl)cc1C(c1ccccc1F)=NC2 [MIDAZOLAM],AC50,[6],> 10 µM
Oc1ccc2c(c1)[C@@]13CCCC[C@@]1(O)[C@@H](C2)N(CC1CCC1)CC3 [BUTORPHANOL],AC50,[7],> 30 µM
CC(=O)OCC(=O)[C@@]1(O)[C@H](C)C[C@H]2[C@@H]3CCC4=CC(=O)C=C[C@]4(C)[C@@]3(F)[C@@H](O)C[C@@]21C [DEXAMETHASONE ACETATE],AC50,[8],> 30 µM
Cn1c(=O)cc(N2CCC[C@@H](N)C2)n(Cc2ccccc2C#N)c1=O [ALOGLIPTIN],AC50,[6],> 10 µM
same,AC50,[8],> 30 µM
CCN1CCCC1CNC(=O)c1cc(S(=O)(=O)CC)c(N)cc1OC (stereo not drawn) [AMISULPRIDE],AC50,Histamine H1 receptor,> 30 µM
same,AC50,[7],> 30 µM
